According to patent EP1935986B1, “Luminogenic and fluorogenic compounds and methods to detect molecules or conditions” (priority 2005, dated 2006):

Legend:
CYP4A11 = target: T1, CYP4A11 (Homo sapiens, UniProt Q02928); test: Two-step luminescent P450 screen of luciferin derivatives; type: biochemical; conditions: result in words
T1 construct: purchased Discovery Labware (BD/Gentest); host or cells: insect cell expression system (membrane fractions)
T1 sequence (Q02928 5-519): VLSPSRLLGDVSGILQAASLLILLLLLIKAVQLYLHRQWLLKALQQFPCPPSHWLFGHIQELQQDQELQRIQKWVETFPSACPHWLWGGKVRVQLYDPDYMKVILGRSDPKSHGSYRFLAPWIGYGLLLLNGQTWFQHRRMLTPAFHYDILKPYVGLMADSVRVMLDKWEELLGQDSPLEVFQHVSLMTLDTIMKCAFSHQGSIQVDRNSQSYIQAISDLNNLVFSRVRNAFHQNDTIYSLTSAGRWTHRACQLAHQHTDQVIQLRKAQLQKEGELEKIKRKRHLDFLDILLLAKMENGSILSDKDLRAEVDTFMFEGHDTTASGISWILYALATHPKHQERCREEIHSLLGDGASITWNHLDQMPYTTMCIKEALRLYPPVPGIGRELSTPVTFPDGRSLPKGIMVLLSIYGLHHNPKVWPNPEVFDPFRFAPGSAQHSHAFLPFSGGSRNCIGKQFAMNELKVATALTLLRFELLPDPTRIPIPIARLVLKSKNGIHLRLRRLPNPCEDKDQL
Protocol: (§1) P450s are Supersomes™ purchased from Discovery Labware (BD/Gentest). […] HLM is human liver microsomes.
(§2) 1X substrate concentration: 50 µM.

CYP4F12 = target: T2, CYP4F12 (Homo sapiens, UniProt Q9HCS2); test: as above; type: biochemical; conditions: result in words
T2 construct: purchased Discovery Labware (BD/Gentest); host or cells: insect cell expression system (membrane fractions)
T2 sequence (Q9HCS2 1-524): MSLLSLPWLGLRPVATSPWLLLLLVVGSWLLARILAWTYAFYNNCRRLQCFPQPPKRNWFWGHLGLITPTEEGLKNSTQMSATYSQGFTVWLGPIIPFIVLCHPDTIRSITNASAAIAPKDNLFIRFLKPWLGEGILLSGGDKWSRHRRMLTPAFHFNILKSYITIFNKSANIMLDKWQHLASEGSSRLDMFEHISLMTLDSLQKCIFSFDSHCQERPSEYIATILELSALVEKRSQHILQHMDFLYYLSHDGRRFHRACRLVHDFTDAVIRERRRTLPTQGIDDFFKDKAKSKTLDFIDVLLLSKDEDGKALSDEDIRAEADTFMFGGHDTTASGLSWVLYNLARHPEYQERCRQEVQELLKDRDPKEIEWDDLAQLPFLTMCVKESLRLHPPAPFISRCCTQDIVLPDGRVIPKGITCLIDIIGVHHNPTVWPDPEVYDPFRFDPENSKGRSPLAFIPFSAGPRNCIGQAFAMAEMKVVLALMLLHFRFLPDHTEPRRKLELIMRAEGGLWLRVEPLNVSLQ
Protocol: as §1, §2

CYP3A4 = CYP3A4 (Homo sapiens, UniProt P08684); test: as above; conditions: result in words
Chain of CYP3A4 (P08684 2-503 limits assumed): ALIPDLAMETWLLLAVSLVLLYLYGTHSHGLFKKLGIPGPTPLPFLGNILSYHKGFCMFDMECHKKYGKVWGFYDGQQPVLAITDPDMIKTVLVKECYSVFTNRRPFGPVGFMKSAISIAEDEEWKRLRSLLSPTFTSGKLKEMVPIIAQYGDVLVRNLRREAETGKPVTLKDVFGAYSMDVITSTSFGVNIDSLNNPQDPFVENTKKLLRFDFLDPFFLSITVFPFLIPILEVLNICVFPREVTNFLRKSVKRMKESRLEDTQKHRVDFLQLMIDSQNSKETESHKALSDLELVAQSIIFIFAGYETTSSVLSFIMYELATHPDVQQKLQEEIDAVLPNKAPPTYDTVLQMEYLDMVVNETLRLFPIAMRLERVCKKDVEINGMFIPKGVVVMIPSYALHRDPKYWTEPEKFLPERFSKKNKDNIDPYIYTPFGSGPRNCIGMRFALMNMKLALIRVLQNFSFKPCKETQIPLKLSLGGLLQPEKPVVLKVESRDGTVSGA

[1] = tested on: CYP3A subfamily, CYP3A4, CYP3A5 and CYP3A7; test: Two-step luminescent P450 screen of luciferin derivatives, selectivity for the CYP3A subfamily; type: biochemical, human; conditions: result in words
Protocol: as §1, §2

luciferase = test: No-enzyme control: activity of luciferase towards the luciferin derivative (background luminescence); conditions: on a BMG luminometer; minus P450
Protocol: The reactions (Table 1) were assembled by first adding the water and 1 M BisTris solutions in individual 0.5 ml microfuge tubes, then adding the other components except for the GST #3 solution. Finally, the GST #3 (Figure 12) solution was added to the reactions, the resulting solution was mixed, and the time of addition noted. […]
The GST #3 addition was performed last and the solutions were mixed immediately after addition of GST #3. […] After mixing, the light produced by the solution was measured using a Turner TD 20/20 luminometer.
After assembly, the enzyme stock solutions were diluted 1:10 into 10 mM HEPES, pH 7.5 and the following additions were made to the reactions.
A 5 µl sample of the luciferol DMF solution was added to each of the reactions above and a timer was started upon the addition of the first luciferol/DMF solution to reaction 1. All reactions were kept at room temperature.
After incubating 5 minutes at room temperature, the light produced by these samples was measured using a Turner TD 20 luminometer.
To initiate the conversions, 5 µl of luciferol solution was added to reactions […], 6-9, and 11-15, and 10 µl of luciferol was added to reactions 5 and 10 and the tubes mixed after that addition. Immediately after luciferol addition to reaction 1, a timer was started and the time of luciferol addition to the other tubes noted. After mixing, reaction 11-15 were placed at 37°C.
After incubating 10 minutes at room temperature, the light produced by these samples was read using a Turner TD 20 luminometer (Table 18).
To initiate Step 1, 45 µl of enzyme and buffer were added to each well.
Solution A and Solution B are components of the NADPH Regeneration System (V9510, Promega Corp., Madison WI). […] Solution B contains 40 units/ml glucose-6-phosphate dehydrogenase in 5 mM citrate pH 5.5.

CYP2C19 = target: T3, CYP2C19 (Homo sapiens, UniProt P33261); test: Two-step luminescent P450 screen of luciferin derivatives; type: biochemical; conditions: result in words
T3 construct: purchased Discovery Labware (BD/Gentest); host or cells: insect cell expression system (membrane fractions)
T3 sequence (P33261 whole entry): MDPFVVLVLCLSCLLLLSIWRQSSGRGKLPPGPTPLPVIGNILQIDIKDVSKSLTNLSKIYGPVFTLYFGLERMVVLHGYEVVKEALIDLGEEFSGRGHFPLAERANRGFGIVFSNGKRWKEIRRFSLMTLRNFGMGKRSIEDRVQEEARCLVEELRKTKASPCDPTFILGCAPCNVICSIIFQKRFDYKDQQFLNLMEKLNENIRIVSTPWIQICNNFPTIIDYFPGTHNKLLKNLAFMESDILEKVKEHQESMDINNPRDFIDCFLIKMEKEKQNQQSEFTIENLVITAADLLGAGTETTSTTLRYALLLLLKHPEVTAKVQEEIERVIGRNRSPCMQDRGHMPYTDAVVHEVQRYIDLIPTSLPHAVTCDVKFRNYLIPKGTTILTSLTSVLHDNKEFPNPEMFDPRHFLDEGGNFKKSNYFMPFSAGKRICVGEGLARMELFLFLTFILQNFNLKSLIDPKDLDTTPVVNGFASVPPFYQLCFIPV
Protocol: as §1, §2
(§3) For Figure 20, 1 or 5 picomoles of recombinant CYP2D6 or CYP2C19 membrane fractions from an insect cell expression system (SupersomesTM, Discovery Labware) were incubated at 37°C for 60 minutes with 200 µM D-luciferin 6' methyl ether (luciferin-ME) in 50 mM (CYP2C19) or 100 mM (CYP2D6) KPO4 (pH 7.4) with an NADPH regenerating system (as described above) in a volume of 50 µl. […] For Figure 20, the panel of human P450s was screened as described above.

CYP2D6 = target: T4, CYP2D6 (Homo sapiens, UniProt P10635); test: as above; type: biochemical
T4 construct: purchased Discovery Labware (BD/Gentest); host or cells: insect cell expression system (membrane fractions)
T4 sequence (P10635 whole entry): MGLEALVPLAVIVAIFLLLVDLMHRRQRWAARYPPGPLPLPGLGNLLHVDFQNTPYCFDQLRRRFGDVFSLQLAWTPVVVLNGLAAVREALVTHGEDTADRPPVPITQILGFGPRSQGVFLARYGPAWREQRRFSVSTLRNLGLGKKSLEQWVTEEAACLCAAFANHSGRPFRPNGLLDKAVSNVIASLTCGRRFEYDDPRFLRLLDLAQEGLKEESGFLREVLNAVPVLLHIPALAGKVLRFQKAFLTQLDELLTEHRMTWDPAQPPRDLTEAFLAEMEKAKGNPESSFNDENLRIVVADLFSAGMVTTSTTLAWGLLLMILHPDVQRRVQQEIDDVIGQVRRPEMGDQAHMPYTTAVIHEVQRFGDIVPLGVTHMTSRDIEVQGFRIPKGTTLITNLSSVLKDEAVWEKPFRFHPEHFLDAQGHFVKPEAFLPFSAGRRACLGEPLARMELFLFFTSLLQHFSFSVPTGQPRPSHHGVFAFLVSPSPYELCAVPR
Protocol: as §1, §2, §3

CYP1A2 = target: T5, CYP1A2 (Homo sapiens, UniProt P05177); test: as above; type: biochemical; conditions: 50 µM substrate, 1 pmole P450; result in words
T5 construct: purchased Discovery Labware (BD/Gentest); host or cells: insect cell expression system (membrane fractions)
T5 sequence (P05177 2-516 limits assumed): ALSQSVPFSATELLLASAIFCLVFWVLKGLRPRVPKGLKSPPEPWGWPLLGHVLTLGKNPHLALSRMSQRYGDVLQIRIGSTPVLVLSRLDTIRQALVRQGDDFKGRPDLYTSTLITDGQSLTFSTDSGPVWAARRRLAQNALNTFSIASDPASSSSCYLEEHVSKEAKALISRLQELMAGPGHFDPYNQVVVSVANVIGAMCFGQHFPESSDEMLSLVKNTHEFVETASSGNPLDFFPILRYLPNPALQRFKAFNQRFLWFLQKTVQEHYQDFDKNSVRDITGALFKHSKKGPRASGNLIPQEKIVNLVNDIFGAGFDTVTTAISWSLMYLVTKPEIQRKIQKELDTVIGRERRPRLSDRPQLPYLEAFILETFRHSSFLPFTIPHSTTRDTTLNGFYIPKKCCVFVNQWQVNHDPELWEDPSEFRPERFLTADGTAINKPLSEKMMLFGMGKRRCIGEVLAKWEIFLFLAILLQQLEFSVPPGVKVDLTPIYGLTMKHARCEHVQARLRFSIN
Protocol: as §1, §2

CYP1A1 = target: T6, CYP1A1 (Homo sapiens, UniProt P04798); test: as above; conditions: 50 µM substrate, 1 pmole P450, 37°C 30 minutes; result in words
T6 sequence (P04798 1-512): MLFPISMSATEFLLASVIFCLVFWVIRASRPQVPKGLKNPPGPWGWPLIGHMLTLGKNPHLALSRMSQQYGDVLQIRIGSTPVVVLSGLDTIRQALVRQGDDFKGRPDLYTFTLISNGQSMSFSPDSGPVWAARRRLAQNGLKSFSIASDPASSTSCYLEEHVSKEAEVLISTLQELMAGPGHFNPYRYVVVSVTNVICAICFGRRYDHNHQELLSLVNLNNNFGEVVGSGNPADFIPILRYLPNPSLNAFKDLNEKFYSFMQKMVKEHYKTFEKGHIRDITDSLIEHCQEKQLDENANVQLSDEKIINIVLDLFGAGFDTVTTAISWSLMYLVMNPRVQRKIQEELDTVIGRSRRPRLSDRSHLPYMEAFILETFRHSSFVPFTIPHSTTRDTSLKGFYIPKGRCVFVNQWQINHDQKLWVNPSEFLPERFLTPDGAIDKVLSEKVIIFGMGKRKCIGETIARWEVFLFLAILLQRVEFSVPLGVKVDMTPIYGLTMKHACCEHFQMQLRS

With “2-(7-methyoxy-quinoxalin-2-yl)-4-5-dihydro-thiazole-4-carboxylic acid [quinoxalylluciferin 6-methyl ether]” the “P450 activity / selectivity with the derivative as substrate” value (“P450 activity / selectivity” below) (CYP4A11) was “substrate”.
`Cc1cc(C)c(COc2ccc3nc(C4=N[C@@H](C(=O)O)CS4)sc3c2)c(C)c1` [6'(2,4,6-trimethylbenzyloxy)-luciferin, Luciferin 6-(2,4,6-trimethylbenzyl) ether] was tested, and the “P450 activity / cross reactivity with the derivative as substrate” value (shortened to “P450 activity / cross reactivity”) (CYP4F12) was “did not show substantial cross reactivity”, the “P450 activity / selectivity” value (CYP3A4) was “substantial activity” and the “selectivity for three members of the CYP3A subfamily” value (“selectivity for three members” below) [1] was “selective”.
For `O=C(O)[C@H]1CSC(c2nc3ccc(OCc4cc(C(F)(F)F)ccc4C(F)(F)F)cc3s2)=N1` [6'(2,5-ditrifluoromethylbenzyloxy)-luciferin], the “selectivity for three members” value [1] was “selective”.
For `O=C(O)[C@H]1CSC(c2nc3ccc(OCc4ccccc4C(F)(F)F)cc3s2)=N1` [6'(o-trifluoromethylbenzyloxy)-luciferin, Luciferin 2-trifluoromethylbenzyl ether], the “P450 activity / cross reactivity” value (CYP4F12) was “did not show substantial cross reactivity”, the “P450 activity / selectivity” value (CYP3A4) was “substantial activity” and the “selectivity for three members” value [1] was “selective”.
With `O=C(O)[C@H]1CSC(c2nc3ccc(OCc4c(F)c(F)c(F)c(F)c4F)cc3s2)=N1` [6'-(2,3,4,5,6-pentafluorobenzyloxy)-luciferin] the “P450 activity / cross reactivity” value (CYP4F12) was “did not show substantial cross reactivity”, the “P450 activity / selectivity” value (CYP3A4) was “substantial activity” and the “selectivity for three members” value [1] was “selective”. For the same compound, the background luminescence (luciferase) was “about 900 RLU”.
With `O=C(O)[C@H]1CSC(c2ccc3cc(OCOCc4ccccc4)ccc3n2)=N1` [6'benzyloxymethoxy-quinolylluciferin, quinolinyl luciferin benzyloxymethyl ether] the “selectivity for three members” value [1] was “selective”.
`O=C(O)[C@H]1CSC(c2nc3ccc(OCc4c(F)c(F)c(F)c(CN5CCN(c6ccccc6)CC5)c4F)cc3s2)=N1` [LucPPXE4F, 6'-(2,3,4,6-tetrafluoro-5-((4-phenylpiperizin-1-yl)methyl)benzyloxy)-luciferin] was tested, and the “P450 activity / cross reactivity” value (CYP4F12) was “did not show substantial cross reactivity”, the “P450 activity / selectivity” value (CYP3A4) was “substantial activity” and the “selectivity for three members” value [1] was “selective”.
For `O=C(O)[C@H]1CSC(c2nc3ccc(OCc4cccc(CN5CCN(c6ccccc6)CC5)c4)cc3s2)=N1` [LucPPXE, Luciferin 3-(4-phenylpiperazin-1-yl)methylbenzyl ether], the “P450 activity / cross reactivity” value (CYP4F12; listed as 6'(3-((4-phenylpipenzin-1-yl))methyl)benzyloxy) luciferin) was “did not cross react”, the “P450 activity / selectivity” value (CYP3A4) was “substantial activity” and the “competition at the substrate binding sites on CYP3A4” value (CYP3A4) was “competitive at 2 of the 3 substrate binding sites”. For the same compound, the “sensitivity of the reaction with 3A4 to DMSO” value (CYP3A4) was “insensitive to DMSO at commonly used concentrations”, the “selectivity for three members” value [1] was “selective” and the background luminescence (luciferase) was “about 2200 RLU”.
In the case of `COc1ccc2cc(C3=N[C@@H](C(=O)O)CS3)ccc2c1` [Naphthylluciferin 6-methyl ether, naphthyl luciferin methyl ether], the “P450 activity / selectivity” value (CYP4A11) is reported as “substrate”.
For `COC(=O)[C@H]1CSC(c2nc3ccccc3s2)=N1` [carboxyl methyl ester of deoxyluciferin], the “P450 activity / selectivity” value (CYP2C19) was “substantial activity with CYP2C 19 and strong selectivity”.
In the case of `COc1ccc2nc(C3=NC(C(=O)OCc4cccnc4)CS3)sc2c1` (stereo not shown) [m-picolinyl ester of luciferin methyl ether], the “signal when the esterase was not added, relative to the plus esterase signal” value (CYP2D6; purified recombinant CYP2D6 substantially free of carboxylesterases, 2 step assay) is reported as “less than 10%”, the “P450 activity / selectivity” value (CYP2D6; result in words) is reported as “showed a preference” and the “P450 activity / selectivity” value (CYP1A2) is reported as “showed a preference”. For the same compound, the “P450 activity / selectivity” value (CYP1A1) was “showed a preference”.
For Bis-luciferin-methylenediether, the “P450 activity / selectivity” value (CYP1A1) was “selective”.
For N-benzyloxycarbonyl aminoluciferin, the “P450 activity / selectivity” value (CYP1A1) was “strong selectivity”.
With “N-isobutoxycarbonyl-aminoluciferin [N-isobutoxycarbonyl aminolucifern]” the “P450 activity / selectivity” value (CYP1A1) was “strong selectivity”.
